Results from PubChem BioAssay AID686920 (Broad Institute, 2013).
Activity calls are given as the source filed them.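 How the source made its calls: active means fitted curve reaching 35% inhibition at a dose no higher than twice the top valid tested dose; inconclusive means flat fit with 30 to 70% inhibition, or a poor fit; inactive means the rest, including activity in the opposite direction.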

Assay: suppressors of NR0B1-promoter luciferase reporter, dose response, EWS/Fli inhibitor project, luciferase luminescence, A673 cells, cherry-pick (AID 686920)
Details: A673 NR0B1-luciferase reporter, viability-normalised luminescence; at 68 µM (top of the series)

Row | SMILES | activity change, negative = inhibition
1 | COc1cccc(S(=O)(=O)N(C)C[C@H]2OCc3cnnn3CCCC(=O)N([C@@H](C)CO)C[C@H]2C)c1 | -19.9% (inactive)
2 | COC(=O)C[C@H]1CC[C@@H]2[C@H](COc3ccc(NC(=O)Nc4cccc(Cl)c4)cc3C(=O)N2C)O1 | 14.5% (inactive)
3 | COc1cc(/C=N/NC(=O)c2csc3c2CCCC3)cc(OC)c1O | 16.3% (inactive)
4 | COc1ccccc1NS(=O)(=O)c1cc(NC(=O)c2cc3ccccc3oc2=O)ccc1C | 53.4% (inactive)
5 | COc1cc(/C=N\Nc2nc(-c3ccc(C)cc3)c(NC(C)=O)s2)ccc1O | 80.8% (inactive)
6 | COC(=O)C[C@@H]1CC[C@@H]2[C@H](COc3ccc(NC(=O)Nc4cccc(C#N)c4)cc3C(=O)N2C)O1 | -24.9% (inactive)
7 | COc1ccc(NC(=S)N=Nc2c(O)[nH]c3ccccc23)cc1 | 29.4% (inactive)
8 | C=CCOC(=O)c1sc(NC(=O)c2ccc(OC)cc2)nc1C | 39% (inactive)
9 | S=C(NCCN1CCOCC1)Nc1ccccc1Cl | 15.5% (inactive)
10 | COC(=O)C[C@@H]1CC[C@@H]2[C@H](COc3ccc(NC(=O)c4cccc(Cl)c4)cc3C(=O)N2C)O1 | -6.57% (inactive)
11 | N/C(Cc1nc(-c2ccc(F)cc2)cs1)=N\O | 42.1% (inactive)
12 | C/C=C/c1ccc([C@H]2[C@@H](CO)N3C(=O)CN(S(=O)(=O)c4cccc(F)c4)C[C@@H]23)cc1 | -7.12% (inactive)
13 | Oc1c(Cl)cc(Cl)c2cccnc12 | -29.3% (inactive)
14 | CC(Oc1cccc(Cl)c1)C(=O)NCCCCc1ccccc1 (centres undefined) | 4.85% (inactive)
15 | Cc1c(N=Cc2cc(Br)cc(Br)c2O)cccc1C(=O)O | 14.9% (inactive)
16 | COC(=O)C[C@@H]1CC[C@@H]2[C@H](COc3ccc(NC(=O)c4cc(F)cc(F)c4)cc3C(=O)N2C)O1 | -0.173% (inactive)
17 | CCCn1nnc(NC(=S)NC(=O)C(C)(C)C)n1 | 37.8% (inactive)
18 | C[C@H](CO)N1C[C@H](C)[C@H](CN(C)Cc2ccc(C(=O)Nc3ccccc3N)cc2)Oc2ccc(N(C)C)cc2CC1=O | 10.7% (inactive)
19 | CC(=O)c1ccc(N(C(=O)Cn2nnc3ccccc32)C(C(=O)NCc2ccccc2)c2ccccn2)cc1 (centres undefined) | 102% (inactive)
20 | COC(=O)c1c(C)[nH]c(/C=N/Nc2ccccc2)c1C | 38.6% (inactive)

Row | SMILES | activity change, negative = inhibition
21 | CCn1c(/C=N/NC(=O)c2ccc(OC)cc2)nc2ccccc21 | 30.3% (inactive)
22 | COC(=O)C[C@@H]1CC[C@@H]2[C@H](COc3ccc(NC(=O)Nc4cccc(Cl)c4)cc3C(=O)N2C)O1 | -19.3% (inactive)
23 | Cc1ccc(NC(=O)COC(=O)c2ccc3c(c2)OCO3)cc1S(=O)(=O)N1CCCCC1 | 9.71% (inactive)
24 | Nc1nc(N)c2c(ccc3nccc32)[nH]1 | 55.3% (inactive)
25 | O=C(Nc1cccc(Oc2ccc3c(c2)C(=O)NC3=O)c1)c1cccs1 | -4.58% (inactive)
26 | Cc1cc(C(=O)NNC(=O)c2ccc(S(=O)(=O)N(C)C)cc2)c(C)o1 | 5.18% (inactive)
27 | N=c1ccn2c(n1)O[C@H]1[C@H](O)[C@@H](CO)O[C@H]12 | -26.9% (inactive)
28 | CCc1c(C(=O)NN2C(=O)C3CCCCC3C2=O)csc1C (centres undefined) | 27.7% (inactive)
29 | CN(C)[C@@H]1CCC[C@@H]1OC(=O)C(c1ccccc1)c1ccccc1 | 12.1% (inactive)
30 | CC(=O)Nc1ccc(OCC(=O)N(CC(C)C)C2CCS(=O)(=O)C2)cc1 (centres undefined) | 6.28% (inactive)
31 | COc1ccc(-c2cn(-c3ccc(OC)cc3)c3[n+]2-c2ccccc2CC3)cc1 | -21.1% (inactive)
32 | CC(NC(=O)c1ccco1)c1nc(-c2ccc(C(C)(C)C)cc2)no1 (centres undefined) | 73.3% (inactive)
33 | O=C(CNC(=O)Cc1ccccc1)N=Nc1c(O)n(Cc2ccc3c(c2)OCO3)c2ccccc12 | -28.3% (inactive)
34 | COC(=O)C[C@H]1C=C[C@@H](NC(=O)Nc2ccc(C(F)(F)F)cc2)[C@H](CO)O1 | 8.17% (inactive)
35 | O=C(Cc1nn[nH]n1)c1ccccc1O | 7.17% (inactive)
36 | COC(=O)[C@H]1[C@H](CO)[C@H]2Cn3c(ccc(-c4ccccc4F)c3=O)[C@@H]1N2CC1CCCC1 | -18% (inactive)
37 | Cc1occc1-c1n[nH]c(=S)n1C | 10.2% (inactive)
38 | CCNC(=O)[C@@H]1[C@@H](CO)[C@@H]2Cn3c(ccc(C4=CCCCC4)c3=O)[C@H]1N2CC | -2.58% (inactive)
39 | Cc1ccc(N=C2NC(=O)/C(=C\c3cccs3)S2)cc1C | 48.8% (inactive)
